Measurements reported in ChEMBL document CHEMBL1909046, “DrugMatrix in vitro pharmacology data”.

Tests used:
[1] = DRUGMATRIX: Sodium/nucleoside co-transporter radioligand binding (ligand: nitrobenzylthioinosine); format: cell membranes, Cavia porcellus, Dunkin-Hartley, Cerebral cortex, Membrane; conditions: Not Active = under 50% inhibition at 10 µM
[2] = molecular target: T1, Alpha-1A adrenergic receptor (Rattus norvegicus, UniProt P43140); experiment: DRUGMATRIX: Alpha-1A adrenergic receptor radioligand binding (ligand: prazosin); format: cell membranes, Wistar, Submaxillary gland, Membrane; conditions: Not Active = under 50% inhibition at 10 µM
T1 sequence (P43140 whole entry): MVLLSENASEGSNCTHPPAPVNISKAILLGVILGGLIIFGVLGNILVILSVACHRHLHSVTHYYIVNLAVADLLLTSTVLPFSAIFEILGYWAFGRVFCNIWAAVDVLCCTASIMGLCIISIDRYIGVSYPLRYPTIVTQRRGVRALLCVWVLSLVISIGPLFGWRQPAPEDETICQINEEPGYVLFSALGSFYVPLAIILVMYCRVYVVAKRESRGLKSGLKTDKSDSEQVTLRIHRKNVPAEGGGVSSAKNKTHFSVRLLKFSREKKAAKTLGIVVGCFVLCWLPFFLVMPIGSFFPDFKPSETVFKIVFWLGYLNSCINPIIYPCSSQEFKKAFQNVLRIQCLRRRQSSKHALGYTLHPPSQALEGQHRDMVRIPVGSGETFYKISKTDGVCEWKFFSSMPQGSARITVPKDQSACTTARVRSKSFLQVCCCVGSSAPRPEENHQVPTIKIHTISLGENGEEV

[3] = molecular target: C-C chemokine receptor type 2 (Homo sapiens, UniProt P41597); format: cell membranes, Membrane; conditions: cho-k1; also: in other assays of this panel Not Active means under 50% inhibition at 10 µM
[4] = molecular target: Histamine H2 receptor (Homo sapiens, UniProt P25021); format: cell membranes, CHO-K1, Membrane; conditions: cho-k1; also: in other assays of this panel Not Active means under 50% inhibition at 10 µM
[5] = DRUGMATRIX: Potassium Channel [KATP] radioligand binding (ligand: [3H] Glyburide); format: cell membranes, Membrane; conditions: hit-t15; Not Active = under 50% inhibition at 10 µM
[6] = molecular target: 5-hydroxytryptamine receptor 1B (Rattus norvegicus, UniProt P28564); format: cell membranes, Wistar, Cerebral cortex, Membrane; also: in other assays of this panel Not Active means under 50% inhibition at 10 µM
[7] = molecular target: T2, Cytochrome P450 1A2 (Homo sapiens, UniProt P05177); conditions: bti-tn-5b1-4; also: in other assays of this panel Not Active means under 50% inhibition at 10 µM
T2 sequence (P05177 whole entry): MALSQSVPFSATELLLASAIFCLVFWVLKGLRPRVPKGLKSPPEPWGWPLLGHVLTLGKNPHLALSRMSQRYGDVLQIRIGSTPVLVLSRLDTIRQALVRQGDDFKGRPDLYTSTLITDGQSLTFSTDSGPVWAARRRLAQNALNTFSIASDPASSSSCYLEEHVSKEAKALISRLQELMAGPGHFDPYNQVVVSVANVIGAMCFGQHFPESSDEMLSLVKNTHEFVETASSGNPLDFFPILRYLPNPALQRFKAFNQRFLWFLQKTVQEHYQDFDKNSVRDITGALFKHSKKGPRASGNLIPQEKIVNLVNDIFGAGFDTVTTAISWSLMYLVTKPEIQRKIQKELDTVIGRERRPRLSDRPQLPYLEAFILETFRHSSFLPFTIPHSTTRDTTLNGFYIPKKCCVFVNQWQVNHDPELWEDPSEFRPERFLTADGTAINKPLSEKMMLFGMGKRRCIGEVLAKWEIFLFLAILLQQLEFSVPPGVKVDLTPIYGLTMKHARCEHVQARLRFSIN

C-C chemokine receptor type 2, sequence (P41597 whole entry): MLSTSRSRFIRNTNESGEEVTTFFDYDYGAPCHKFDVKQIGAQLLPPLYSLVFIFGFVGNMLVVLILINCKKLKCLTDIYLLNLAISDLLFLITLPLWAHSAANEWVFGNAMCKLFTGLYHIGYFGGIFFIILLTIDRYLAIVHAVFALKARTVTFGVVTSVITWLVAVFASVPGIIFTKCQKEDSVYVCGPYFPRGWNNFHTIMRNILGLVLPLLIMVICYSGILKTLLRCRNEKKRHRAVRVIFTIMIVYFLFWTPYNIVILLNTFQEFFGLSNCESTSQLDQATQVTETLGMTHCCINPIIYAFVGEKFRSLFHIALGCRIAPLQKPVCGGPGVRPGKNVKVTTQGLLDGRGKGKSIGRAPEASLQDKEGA
5-hydroxytryptamine receptor 1B, sequence (P28564 whole entry): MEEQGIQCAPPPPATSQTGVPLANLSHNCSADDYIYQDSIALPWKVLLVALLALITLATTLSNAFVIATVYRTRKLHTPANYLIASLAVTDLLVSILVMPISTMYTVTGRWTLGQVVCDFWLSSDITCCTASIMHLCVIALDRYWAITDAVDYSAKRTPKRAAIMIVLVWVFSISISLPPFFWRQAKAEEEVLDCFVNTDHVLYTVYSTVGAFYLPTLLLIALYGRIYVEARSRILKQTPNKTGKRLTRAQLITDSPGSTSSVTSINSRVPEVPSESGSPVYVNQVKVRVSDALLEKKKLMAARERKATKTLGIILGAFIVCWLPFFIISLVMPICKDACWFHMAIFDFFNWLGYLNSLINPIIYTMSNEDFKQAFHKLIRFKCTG
Histamine H2 receptor, sequence (P25021 whole entry): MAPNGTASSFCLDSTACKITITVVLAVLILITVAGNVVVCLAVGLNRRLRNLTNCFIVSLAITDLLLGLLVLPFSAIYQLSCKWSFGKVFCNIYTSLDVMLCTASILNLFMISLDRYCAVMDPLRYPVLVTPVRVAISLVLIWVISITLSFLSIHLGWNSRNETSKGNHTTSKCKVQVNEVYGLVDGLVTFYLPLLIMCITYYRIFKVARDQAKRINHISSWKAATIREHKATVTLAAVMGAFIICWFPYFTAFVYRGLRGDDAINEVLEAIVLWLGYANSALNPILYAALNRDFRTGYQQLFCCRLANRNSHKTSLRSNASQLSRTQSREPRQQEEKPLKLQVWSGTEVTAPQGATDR

Question: Which IC50 [1] does the source give for C[C@@H](CO)NC(=O)[C@@H]1C=C2c3cccc4[nH]cc(c34)C[C@H]2N(C)C1 [ERGONOVINE] here?
Answer: The IC50 was “Not Active”.

Question: And the Ki [1]?
Answer: Its Ki is “Not Active”.

Question: And the IC50 [2]?
Answer: Its IC50 is “Not Active”.

Question: And the IC50 [3]?
Answer: The IC50 was “Not Active”.

Question: What about the IC50 [4] of the same compound?
Answer: Its IC50 is “Not Active”.

Question: And the IC50 [5]?
Answer: Its IC50 is “Not Active”.

Question: What about the Ki [5] of the same compound?
Answer: The Ki was “Not Active”.

Question: What about the IC50 ([6]; read-out: IC50) of the same compound?
Answer: Its IC50 is 2.85 nM.

Question: And the Ki ([6]; read-out: Ki)?
Answer: Its Ki is 1.29 nM.

Question: What about the IC50 [7] of the same compound?
Answer: The IC50 was “Not Active”.

Question: And the Ki [7]?
Answer: The Ki was “Not Active”.

Question: With CC(=O)O[C@H]1C(=O)[C@@]2(C)[C@H]([C@H](OC(=O)c3ccccc3)[C@]3(O)C[C@H](OC(=O)[C@H](O)[C@@H](NC(=O)c4ccccc4)c4ccccc4)C(C)=C1C3(C)C)[C@]1(OC(C)=O)CO[C@@H]1C[C@@H]2O [PACLITAXEL] as the compound, how does the IC50 [1] read?
Answer: The IC50 was “Not Active”.

Question: What about the Ki [1] of the same compound?
Answer: Its Ki is “Not Active”.

Question: And the IC50 [2]?
Answer: The IC50 was “Not Active”.

Question: And the IC50 [3]?
Answer: Its IC50 is “Not Active”.

Question: And the IC50 [4]?
Answer: Its IC50 is “Not Active”.

Question: And the IC50 [5]?
Answer: The IC50 was “Not Active”.

Question: What about the Ki [5] of the same compound?
Answer: The Ki was “Not Active”.

Question: And the IC50 [6]?
Answer: Its IC50 is “Not Active”.

Question: And the IC50 [7]?
Answer: The IC50 was “Not Active”.

Question: What about the Ki [7] of the same compound?
Answer: The Ki was “Not Active”.

Question: For Nc1ccn([C@@H]2O[C@H](CO)[C@@H](O)C2(F)F)c(=O)n1 [GEMCITABINE], which IC50 [1] is on record?
Answer: Its IC50 is “Not Active”.

Question: What about the Ki [1] of the same compound?
Answer: The Ki was “Not Active”.

Question: What about the IC50 [2] of the same compound?
Answer: The IC50 was “Not Active”.

Question: What about the IC50 [3] of the same compound?
Answer: The IC50 was “Not Active”.

Question: What about the IC50 [4] of the same compound?
Answer: Its IC50 is “Not Active”.

Question: And the IC50 [5]?
Answer: The IC50 was “Not Active”.

Question: And the Ki [5]?
Answer: The Ki was “Not Active”.

Question: What about the IC50 [6] of the same compound?
Answer: The IC50 was “Not Active”.

Question: And the IC50 [7]?
Answer: Its IC50 is “Not Active”.

Question: What about the Ki [7] of the same compound?
Answer: The Ki was “Not Active”.

Question: Which results are given for COc1cc(N)c(Cl)cc1C(=O)NC1CCN(CCCOc2ccc(F)cc2)CC1OC (configuration not stated) [CISAPRIDE]?
Answer: IC50 [1]: Not Active; Ki [1]: Not Active; IC50 ([2]; read-out: IC50): 120 nM; Ki ([2]; read-out: Ki): 49 nM; IC50 [3]: Not Active; IC50 [4]: Not Active; IC50 [5]: Not Active; Ki [5]: Not Active; IC50 [6]: Not Active; IC50 [7]: Not Active; Ki [7]: Not Active

Question: With CCC1(CCC(C)C)C(=O)NC(=O)NC1=O [AMOBARBITAL] as the compound, how does the IC50 [1] read?
Answer: Its IC50 is “Not Active”.

Question: And the Ki [1]?
Answer: The Ki was “Not Active”.

Question: And the IC50 [2]?
Answer: The IC50 was “Not Active”.

Question: What about the IC50 [3] of the same compound?
Answer: The IC50 was “Not Active”.

Question: What about the IC50 [4] of the same compound?
Answer: The IC50 was “Not Active”.

Question: What about the IC50 [5] of the same compound?
Answer: The IC50 was “Not Active”.

Question: What about the Ki [5] of the same compound?
Answer: Its Ki is “Not Active”.

Question: What about the IC50 [6] of the same compound?
Answer: Its IC50 is “Not Active”.

Question: And the IC50 [7]?
Answer: The IC50 was “Not Active”.

Question: And the Ki [7]?
Answer: The Ki was “Not Active”.

Question: Which IC50 [1] does the source give for O=C(O)c1cccnc1Nc1cccc(C(F)(F)F)c1 [NIFLUMIC ACID] here?
Answer: The IC50 was “Not Active”.

Question: What about the Ki [1] of the same compound?
Answer: The Ki was “Not Active”.

Question: What about the IC50 [2] of the same compound?
Answer: Its IC50 is “Not Active”.

Question: And the IC50 [3]?
Answer: Its IC50 is “Not Active”.

Question: What about the IC50 [4] of the same compound?
Answer: Its IC50 is “Not Active”.

Question: What about the IC50 [5] of the same compound?
Answer: Its IC50 is “Not Active”.

Question: What about the Ki [5] of the same compound?
Answer: Its Ki is “Not Active”.

Question: And the IC50 [6]?
Answer: Its IC50 is “Not Active”.

Question: What about the IC50 [7] of the same compound?
Answer: The IC50 was “Not Active”.

Question: What about the Ki [7] of the same compound?
Answer: Its Ki is “Not Active”.

Question: Which results are given for Cn1c(=O)c2[nH]cnc2n(C)c1=O.Cn1c(=O)c2[nH]cnc2n(C)c1=O.NCCN [AMINOPHYLLINE]?
Answer: IC50 [1]: Not Active; Ki [1]: Not Active; IC50 [2]: Not Active; IC50 [3]: Not Active; IC50 [4]: Not Active; IC50 [5]: Not Active; Ki [5]: Not Active; IC50 [6]: Not Active; IC50 [7]: Not Active; Ki [7]: Not Active

Question: With GENTAMICIN as the compound, how does the IC50 [1] read?
Answer: The IC50 was “Not Active”.

Question: What about the Ki [1] of the same compound?
Answer: Its Ki is “Not Active”.

Question: What about the IC50 [2] of the same compound?
Answer: Its IC50 is “Not Active”.

Question: And the Ki [2]?
Answer: Its Ki is “Not Active”.

Question: And the IC50 [3]?
Answer: The IC50 was “Not Active”.

Question: What about the Ki [3] of the same compound?
Answer: Its Ki is “Not Active”.

Question: What about the IC50 [4] of the same compound?
Answer: Its IC50 is “Not Active”.

Question: What about the Ki [4] of the same compound?
Answer: The Ki was “Not Active”.

Question: What about the IC50 [5] of the same compound?
Answer: The IC50 was “Not Active”.

Question: And the Ki [5]?
Answer: Its Ki is “Not Active”.

Question: What about the IC50 [6] of the same compound?
Answer: The IC50 was “Not Active”.

Question: What about the Ki [6] of the same compound?
Answer: The Ki was “Not Active”.

Question: What about the IC50 [7] of the same compound?
Answer: Its IC50 is “Not Active”.

Question: What about the Ki [7] of the same compound?
Answer: The Ki was “Not Active”.

Question: Which results are given for C=CCc1ccc(O)c(OC)c1 [EUGENOL]?
Answer: IC50 [1]: Not Active; Ki [1]: Not Active; IC50 [2]: Not Active; IC50 [3]: Not Active; IC50 [4]: Not Active; IC50 [5]: Not Active; Ki [5]: Not Active; IC50 [6]: Not Active; IC50 [7]: Not Active; Ki [7]: Not Active

Question: What does the source list for COc1ccc2[nH]cc(CCNC(C)=O)c2c1 [MELATONIN]?
Answer: IC50 [1]: Not Active; Ki [1]: Not Active; IC50 [2]: Not Active; IC50 [3]: Not Active; IC50 [4]: Not Active; IC50 [5]: Not Active; Ki [5]: Not Active; IC50 [6]: Not Active; IC50 [7]: Not Active; Ki [7]: Not Active

Question: For N=C(N)NC(=O)Cc1c(Cl)cccc1Cl [GUANFACINE], which IC50 [1] is on record?
Answer: Its IC50 is “Not Active”.

Question: And the Ki [1]?
Answer: Its Ki is “Not Active”.

Question: What about the IC50 ([2]; read-out: IC50) of the same compound?
Answer: Its IC50 is 1350 nM.

Question: What about the Ki ([2]; read-out: Ki) of the same compound?
Answer: Its Ki is 546 nM.

Question: What about the IC50 [3] of the same compound?
Answer: Its IC50 is “Not Active”.

Question: What about the IC50 [4] of the same compound?
Answer: Its IC50 is “Not Active”.

Question: What about the IC50 [5] of the same compound?
Answer: Its IC50 is “Not Active”.

Question: What about the Ki [5] of the same compound?
Answer: Its Ki is “Not Active”.

Question: And the IC50 [6]?
Answer: The IC50 was “Not Active”.

Question: And the IC50 [7]?
Answer: Its IC50 is “Not Active”.

Question: And the Ki [7]?
Answer: The Ki was “Not Active”.
